Test results from patent EP2444396A1, “PHOTOPROTECTIVE COMPOSITION” (Apoteknos Para La Piel, S.L., priority 2009, dated 2010).
Values joined by “and” are separate entries in the source; they are usually repeats but may differ in a detail not shown here. Equal entries are not always repeated. Marks after values point to notes of the source that are not given here.

Key:
[1] = UV spectrum: wavelengths of maximum absorption and absorbance (Cecil 2021 UV-Visible Spectrophotometer); type: physicochemical; details: for UV spectrum A (a.u): absorbance at the maximum of the same line; for UV spectrum λ (nm): wavelengths of the maximum absorption
[2] = Absorption spectrum in methanol (195 - 400 nm); type: physicochemical; details: peak wavelength, 10 mg/ml
Description: In order to determine the absorption spectrum, a solution of 10 mg/ml of methanol was prepared from each of the substances. The methanol in turn was used to adjust the zero absorbance in each of the wavelengths in the range of 195 - 400 nm.

[3] = test system: Erythema induced by UVB radiation in mouse; experiment: Photoprotection: erythema induced by UVB radiation in mouse skin; type: in vivo; design: key to Erythema induced by UVB radiation in mouse: presence (+); absence (-); details: individual animals No. 1-10; 0.5% gel topical, about 2.5 kJ/m^2 UVB, 24 hours after exposure
Excerpt: The effect of p-nitrolophine and m-nitrolophine on erythema due to exposing the mouse skin to an irradiation source at maximum in the UVB region has been studied in these assays. The results obtained have been compared with the effect of 4-methylbenzylidene camphor (P5000) a substance considered as a UVB solar filter and with the effect of butyl methoxydibenzoylmethane (P1789) an UVA type filter, both products being commonly used in antisolar cosmetics.
35 male mice weighing more than 20 grams have been used. After receiving them, the animals were acclimated for 7 days at the place where the assays were preformed, they were being placed in a cage with controlled temperature (22°C), with relative humidity between 50% and 75%, replacing fresh filtered air approximately 10 times per hour and with 12 h light/dark cycles (7.00 - 19.00 light and from 19.00 to 7.00 dark). For this period and during the experimental period, the animals were fed ad libitum with standard diet for rodents and running water as drink.
The animals were randomly distributed into 4 experimental groups according to Table 7. The products to be tested were directly used, applying them in the form of a gel on an area of the skin such that each animal form its own control.
The test was performed following the method described by Winder et al. ["A study of Pharmacological influences on ultraviolet erythema in guinea pigs". Arch. Int Pharmacodyn, 116:261-292; 1958] and by other authors [Wendy et al. "The local antinociceptive and topical antiinflamatory effects of propyl gallate in rodents". Br. J. Pharmacol, 58:573 -581; 1976; Katiyar et al. "Protective Effects of Silymarin Against Photocarcinogenesis in a Mouse Skin Model". J Natl Cancer Inst 89:556-65; 1997] with slight modifications. The day […] the assay, as much hair as possible were removed from the animals by applying a layer of commercial hair-removing cream to remove all the trace of hair and to leave the skin of the back completely bare. The rest of the hair-removing cream were removed by means of washing and rinsing with running water and the animals were the returned to their corresponding cages where they remained until the following day.
On the day of the assay, the substances to be assayed were blindly applied on the back of the previously labelled animals following a random pattern (randomized). After applying the corresponding treatments, the animals were placed and pinned to the presentation platform of the equipment. The animals were then placed 8 cm from an ultraviolet light source of 4*40w with 313 nm of fundamental emission and a range comprised approximately between 290 and 350 nm and with an anti-UVC filter. The emission spectrum of said light source is depicted in Figure 1.
The exposure was maintained until all the animals have received an approximate total dose of 2.5 kJ/m^2. The dose of irradiation applied was determined by means of a ultraviolet light detector, the response curve of which is shown in Figure 2.
Twenty four hours after ending the exposure, the back of the animals was photographed and they were returned to their cages. The evaluation of erythema was performed by means of a positive/negative criterion, the percentage of protected animals being obtained. The statistic significance of the difference was evaluated by means of the non-parametric Fisher Test.

[4] = molecular target: T1, ERβ (Homo sapiens, UniProt Q92731); experiment: Estrogenicity reporter gene bioassay (luciferase activity) in HELN-ERβ cells; type: cell-based
T1 construct: expressed in transfected cells; host or cells: HeLa (HELN-ERβ)
T1 sequence (Q92731 whole entry, species assumed): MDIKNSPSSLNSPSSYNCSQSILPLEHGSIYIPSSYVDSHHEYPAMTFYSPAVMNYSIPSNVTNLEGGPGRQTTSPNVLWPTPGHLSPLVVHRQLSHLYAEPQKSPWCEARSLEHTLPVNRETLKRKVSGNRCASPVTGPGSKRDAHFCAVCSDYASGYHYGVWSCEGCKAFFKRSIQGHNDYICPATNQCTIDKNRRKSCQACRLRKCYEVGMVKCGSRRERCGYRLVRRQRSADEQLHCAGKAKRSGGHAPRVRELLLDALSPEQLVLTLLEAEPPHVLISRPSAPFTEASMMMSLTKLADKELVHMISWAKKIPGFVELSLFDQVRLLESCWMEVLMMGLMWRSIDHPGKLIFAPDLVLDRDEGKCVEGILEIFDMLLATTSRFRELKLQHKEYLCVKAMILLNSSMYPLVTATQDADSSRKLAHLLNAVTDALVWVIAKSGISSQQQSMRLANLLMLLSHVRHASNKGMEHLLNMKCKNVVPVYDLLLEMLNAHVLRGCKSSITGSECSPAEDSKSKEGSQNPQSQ
Excerpt: Briefly, the transactivation bioassay (Reporter gene assay) used are based on the use of breast and uterine cancer cell lines transfected with different native or modified hormone receptors. The resulting cell lines further contain a reporter gene regulated by estrogens through the estrogen response element, the globin promoter and the luciferase gene.
HELN-ERα and HELN-ERβ cell lines were obtained by means of transfecting the HeLa uterine cancer cell line. In a first phase, said cells were transfected with an estrogen sensitive response element and then with the estrogen receptor alpha or beta (ERα or ERβ). The selection of clones resistant to geneticin and puromycin was performed using a concentration of 1 mg/mL and 0.5 mg/mL, respectively. The maintenance medium as well as the experimental medium of these 2 cell lines is DMEM F12 without phenol red supplemented with 6% of FBS (lacking of estrogens), 1% of penicillin / streptomycin, 1 mg/mL of geneticin and 0.5 µg/mL of puromycin.
The cells were seeded at a density of 5x10^4 cells per well in white opaque 96 well plates in 150 µL of experimental medium. After 8 hours, the compounds to be assayed (p-nitrolophine and estradiol) were prepared (concentrated 4x) in the same medium and were added to each well (50 µl). The cells were incubated for 16 hours at 37°C. At the end of the incubation, the medium was removed and replaced with fresh medium containing […] luciferin [at that concentration, luciferin diffuses into cell producing a luminescent signal which is stable after 5 minutes and for at least 2 hours]. The plates were then introduced in the luminometer to measure the luminescence for 2 seconds. A YicroBeta Trilux luminometer (EGG Wallac) apparatus was used to detect luciferase activity.
The assays were preformed in quadruple for each concentration (0.01-10 µM) in at least three independent experiments. […] The values of luciferase activity obtained were analyzed using the one-way ANOVA statistic test. The differences were considered significant when P was less than […] (P < 0.05).

[5] = test system: MCF-7 breast cancer cell line; experiment: E-Screen cell proliferation test; type: cell-based, human; details: MCF-7 cells, over control
Excerpt: The E-Screen proliferation test is based on the use of MCF-7 breast cancer cell line. The MCF-7 cells [which endogenously expressed the estrogen receptor alpha (ERα)], respond to the treatment with estradiol increasing its proliferative rate, synthesizing new proteins and transcribing certain specific genes. […] The test compares the number of cells or the cell proliferation obtained after 6 days of culture. The cells grow in culture medium supplemented with human serum lacking of estrogens, in the presence and/or absence of estradiol as well as of the chemical compounds suspected of having estrogenic activity. The E-Screen test was performed following the methodology previously described by Soto et al. ["An in culture bioassay to assess the estrogenicity of xenobiotics. […] Health Perspect. 103:844-850; 1995]. […] The assay was ended after 144 hours of subculture (exponential phase) after drawing out the medium and fixing the cells for the application of sulforhodamine-B technique. Finally, the cell growth for each experimental group is related to the growth obtained for the negative control (absence of hormone) and with respect to estradiol (positive control). Once the E-Screen test is performed, the maximum cell proliferation rate induced by the compound also known as proliferative effect (PE) was established by calculating the ratio existing between the maximum proliferation rate obtained for the compound and the proliferation rate of the negative control. The proliferation data corresponding with the successive dilutions of the compound were transformed after the application of the correction factor for the dilution of each experimental point, the arithmetic mean of the data obtained being calculated. Another parameter is the relative proliferative efficiency (RPE). […] In this assay, the estrogenicity E-Screen test commonly used to identify the hormonal activity of compounds interacting specifically with the estrogen receptor alpha (ERα), has been used. The assays were performed in triplicate for each concentration (range: 300-0.003 µg/ml) in at least three independent experiments.

[6] = test system: MCF-7 breast cancer cell line; experiment: E-Screen cell proliferation test; type: cell-based, human; design: dose or concentration left out as unconfirmed; details: 144 h
[7] = test system: inflammation induced by phorbol 12-myristate-13-acetate (PMA); experiment: Topical anti-inflammatory activity: ear inflammation induced by PMA in mice; type: in vivo; design: RE / RE Average: unit not given here; details: 4 hours
Description: The topical anti-inflammatory activity of p-nitrolophine has been analyzed in this study since erythema is a inflammatory process. Specifically, the inhibition of inflammation induced by phorbol 12-myristate-13-acetate (PMA) was evaluated and compared with an anti-inflammatory product of reference (indometacin). 37 mice were divided into the following groups: positive control group (PMA 0.5 mg); negative control group (indometacin 0.5 mg); treated groups (0.5 mg and 1 mg of p-nitrolophine). All the solutions were prepared using acetone (ppa) as vehicle. 20 µL of solution of 25 mg/mL of phorbol 12-myristate-13-acetate (PMA) [Fluka cod 79346] (10 µL in each face) was administered in the right ear of each mouse. Immediately after administering the PMA, nothing more was administered into the positive control group; 20 µL of the solution of 25 mg/mL of indometacin was administered to the negative control group, and 20 µL of the solution of 25 or 50 mg/mL of 4-nitrolophine was administered in the same manner to the treated groups. Animals having no lesions or skin and ear irritation were used.
After 4 hours of post-treatment, the mice were sacrificed through cervical fracture and a portion of 6 mm in diameter was obtained from each ear with a hollow punch which was weight in precision analytical balance. The difference in weight (Δ) between the right ear (treated) and the left ear (non treated) for each animal and for each group were calculated. The percentage of inhibition (% inh) was estimated and calculated according to the following equation: % inh = 100(1-Δt/Δc) [formula] wherein Δt represents the difference in the treated groups and Δc the difference for the […].
In order to analyze the results, an one way ANOVA and Dunnet test for multiple comparison was used, values of P<0.05 were considered significant. A software, Graphpad Instat Version 3.06, was used for such purposes.

| UV spectrum A (a.u) [1] | UV spectrum λ (nm) [1] | SMILES | further results |
| --- | --- | --- | --- |
| 1.066 a.u and 1.371 a.u | 231.5 nm and 308.0 nm | Clc1ccc(-c2nc(-c3ccccc3)c(-c3ccccc3)[nH]2)cc1 [2-(4-chlorophenyl)-4,5-diphenyl-1H-imidazole] |  |
| 0.817 a.u and 1.093 a.u | 209.0 nm and 296.0 nm | c1ccc(-c2nc(-c3ccccc3)c(-c3ccccc3)[nH]2)cc1 [2,4,5-triphenyl-1H-imidazole] |  |
|  |  | Cc1ccc(C=C2C(=O)C3(C)CCC2C3(C)C)cc1 (stereo not drawn) [P5000, 4-methylbenzylidene camphor, reference compound] | maximum absorption [2]: 295 nm; Erythema induced by UVB radiation in mouse [3]: - |
| 2.032 a.u and 2.692 a.u | 209.5 nm and 322 nm | CN(C)c1ccc(-c2nc(-c3ccccc3)c(-c3ccccc3)[nH]2)cc1 [2-[4-(N,N-dimethylamino)phenyl]-4,5-diphenyl-1H-imidazole] |  |
|  |  | C[C@]12CC[C@@H]3c4ccc(O)cc4CC[C@H]3[C@@H]1CC[C@@H]2O [E2, 17β-estradiol, reference compound] | activity at 0.01 µM [4]: 100%; maximum cell proliferation rate [5]: about 6.2 ± 0.3; Proliferative effect (PE) Mean [6]: 6, 62* |
| 1.117 a.u and 1.536 a.u | 224.0 nm and 297.5 nm | Fc1ccc(-c2nc(-c3ccccc3)c(-c3ccccc3)[nH]2)cc1 [2-(4-fluorophenyl)-4,5-diphenyl-1H-imidazole] |  |
|  | 252.5 nm and 297.5 nm | COc1ccc(-c2nc(-c3ccccc3)c(-c3ccccc3)[nH]2)cc1 [2-(4-methoxyphenyl)-4,5-diphenyl-1H-imidazole] |  |
|  |  | COc1ccc2c(c1)c(CC(=O)O)c(C)n2C(=O)c1ccc(Cl)cc1 [Indometacin, reference compound] | % inhibition [7]: 87.7** (q = 7.6) %; Average (Δ = RE - LE) ([7]; Dose (mg/ear) 0.5): 0.61; LE Average ([7]; left ear (non treated), group average, 0.5 mg group): 6.7; RE Average ([7]; right ear (treated), group average, 0.5 mg): 7.4; LE ([7]; weight of 6 mm portion of left ear (non treated), individual mice, 0.5 mg group): 6.2 and 6.4 and 6.9 (2×) and 6.7 (3×) and 7.6 and 5.5 and 7.2; RE ([7]; weight of 6 mm portion of right ear (treated), individual mice, 0.5 mg): 6.7 and 7.2 (2×) and 6.8 (2×) and 10 and 6.2 (2×) and 7.4 and 9.1 |
| 1.015 a.u and 1.364 a.u | 225.0 nm and 300.5 nm | Oc1ccc(-c2nc(-c3ccccc3)c(-c3ccccc3)[nH]2)cc1 [2-(4-hydroxyphenyl)-4,5-diphenyl-1H-imidazole] |  |
|  | 235.2 nm and 344.4 nm | C(=C\c1nc(-c2ccccc2)c(-c2ccccc2)[nH]1)/c1ccccc1 [(E)-2-styryl-4,5-diphenyl-1H-imidazole] |  |
|  | 202.0 nm and 282.5 nm and 398.5 nm | O=[N+]([O-])c1ccc(/C=C/c2nc(-c3ccccc3)c(-c3ccccc3)[nH]2)cc1 [(E)-2-(4-nitrostyryl)-4,5-diphenyl-1H-imidazole] |  |

| SMILES | UV spectrum A (a.u) [1] | UV spectrum λ (nm) [1] | further results |
| --- | --- | --- | --- |
| O=[N+]([O-])c1ccc(-c2nc3c4ccccc4c4ccccc4c3[nH]2)cc1 [2-(4-nitrophenyl)-1H-phenanthro[9,10-d]imidazole] |  | 202.0 nm and 256.0 nm and 388.5 nm |  |
| O=[N+]([O-])c1ccc(-c2nc(-c3ccc([N+](=O)[O-])cc3)c(-c3ccc([N+](=O)[O-])cc3)[nH]2)cc1 [2,4,5-tris(4-nitrophenyl)-1H-imidazole] | 1.410 a.u and 1.923 a.u | 236.0 nm and 370.0 nm |  |
